Source: patent publication US12144864B2, “Tubulysins and protein-tubulysin conjugates” (Regeneron Pharmaceuticals, Inc., priority 2018, dated 2024)
Where two headings read alike, the source gives them in different places.

How the values were obtained:
C4-2 cells = test: Cell-based killing assay of payloads (CellTiter-Glo), C4-2 cells; design: species or system human; details: 5-day incubation; for IC50: Homo sapiens, C4-2, 120 h, average ± SD where replicates; for C4-2 % Kill: at maximum concentration tested (100 − % viable cells)
Method: (§1) To test the ability of the disclosed tubulysin payloads to kill human cell lines, an in vitro cytotoxicity assay was performed. In vitro cytotoxicity of the disclosed payloads, as well as reference compounds, were evaluated using the CellTiter-Glo Assay Kit (Promega, Cat #G7573), in which the quantity of ATP present is used to determine the number of viable cells in culture. For the assay, C4-2, HEK293, or T47D cells were seeded at 4000 cells/well on Nunclon white 96-well plates in complete growth medium (DME high glucose:Ham's F12 at 4:1, 10% FBS, 100 units/ml Penicillin, 100 ug/ml streptomycin, 53 ug/ml glutatmine, 10 ug/ml insulin, 220 ng/ml biotin, 12.5 pg/ml T3, 12.5 ug/ml Adenine, 4 ug/ml transferrin for C42 cells; DME high glucose, 10% FBS, 100 units/ml Penicillin, 100 ug/ml streptomycin, 53 ug/ml glutatmine for HEK293; RPMI, 10% FBS, 100 units/ml Penicillin, 100 ug/ml streptomycin, 53 ug/ml glutatmine, 10 ug/ml insulin, 10 mM HEPEs, 200 nM Sodium Pyruvate for T47D cells) and grown overnight at 37° C. in 5% CO2. For cell viability curves, 1:3 serially diluted payloads were added to the cells at final concentrations ranging from 100 nM to […], including a no treatment control group, and were then incubated for 5 days. After the 5-day incubation, cells were incubated at room temperature with 100 μL of CellTiter-Glo reagents for 10 minutes. Relative luminescence units (RLU) were determined on a Victor plate reader (PerkinElmer). The IC50 values were determined from a four-parameter logistic equation over a 10-point response curve (GraphPad Prism). All IC50 values are expressed in molar (M) concentration. The percent cell killing (% kill) at the maximum concentration tested was estimated from the following formula (100−% viable cells). Averages±standard deviation (SD) are included where replicate experiments were performed.

HCT15 cells = test: cells; assay type: cell-based, human; details: HCT15 cells; for HCT-15 + verapamil % Kill / HCT-15 % Kill: maximum % cell killing
Method: as §1
In vitro cytotoxicity of the disclosed payloads as well as reference compounds were evaluated similarly as described above except using 1000 HCT15 cells, a colorectal carcinoma cell line, in growth medium (RPMI, 10% FBS, 100 units/ml Penicillin, 100 ug/ml streptomycin, 53 ug/ml glutatmine) with or without 5 ug/mL of Verapamil.

HL60/MX2 cells = test: Cytotoxicity in panel of MDR cell lines, HL60/MX2 (72 h and 144 h); assay type: cell-based, human; details: for IC50: Homo sapiens
Method: as §1
(§2) To further test the ability of the disclosed tubulysin payloads, a cytotoxicity assay was performed using a panel of multidrug resistant (MDR) cell lines. In vitro cytotoxicity of the disclosed payloads as well as reference compounds were similarly evaluated as described above except using HCT-15 cells, a colorectal carcinoma cell line; H69AR, a doxorubicin resistant MDR derivative of the small cell lung cancer carcinoma cell line NCI-H69; MES-SA/MX2, a mitoxantrone resistant MDR derivative of the uterine sarcoma cell line MES-SA; and HL60/MX2, a mitoxantrone resistant MDR derivative of the acute promyelocytic leukemia cell line HL60. In these assays, cytotoxicity was evaluated in normal growth media (RPMI, 10% FBS, 100 units/ml Penicillin, 100 ug/ml streptomycin, and 53 ug/ml glutatmine for HCT-15 and HL60/MX2; RPMI, 20% FBS, 100 units/ml Penicillin, 100 ug/ml streptomycin, and 53 ug/ml glutatmine for H69-AR; Waymouths's:McCoy's (1:1), 10% FBS, 100 units/ml Penicillin, 100 ug/ml streptomycin, and 53 ug/ml glutatmine for MES-SA/MX2) with 1000 cells per well following 72 h and 144 h incubation with payloads.

MES-SA/MX2 cells = test: Cytotoxicity in panel of MDR cell lines, MES-SA/MX2 (72 h and 144 h); assay type: cell-based, human; details: for IC50: Homo sapiens
Method: as §1, §2

HCT-15 cells = test: Cytotoxicity in panel of MDR cell lines, HCT-15 (72 h and 144 h); assay type: cell-based, human; details: for IC50: Homo sapiens
Method: as §1, §2

H69AR cells = test: Cytotoxicity in panel of MDR cell lines, H69AR (72 h and 144 h); assay type: cell-based, human; details: for IC50: Homo sapiens
Method: as §1, §2

[1] = with 5 ug/mL Verapamil, read-out: HCT-15 + verapamil IC50
[2] = Homo sapiens, HCT-15, without Verapamil, read-out: HCT-15 IC50
[3] = 72 h incubation, read-out: HL60/MX2 IC50 72 h
[4] = 144 h incubation, read-out: HL60/MX2 IC50 144 h
[5] = 72 h incubation, read-out: MES-SA/MX2 IC50 72 h
[6] = 144 h incubation, read-out: MES-SA/MX2 IC50 144 h
[7] = 72 h incubation, read-out: HCT-15 IC50 72 h
[8] = 144 h incubation, read-out: HCT-15 IC50 144 h
[9] = 72 h incubation, read-out: H69AR IC50 72 h
[10] = 144 h incubation, read-out: H69AR IC50 144 h

## C#CCCCON(C(=O)[C@@H](NC(=O)[C@H]1CCCCN1C)[C@@H](C)CC)[C@H](C[C@@H](OC(=O)NCC)c1nc(C(=O)N[C@@H](Cc2ccc(NC(C)=O)cc2)CC(C)(C)C(=O)O)cs1)C(C)C [VIg, (4S)-5-(4-Acetamidophenyl)-4-({2-[(1R,3R)-1-[(ethylcarbamoyl)oxy]-4-methyl-3-[(2S,3S)-3-methyl-2-{[(2R)-1-methylpiperidin-2-yl]formamido}-N-(pent-4-yn-1-yloxy)pentanamido]pentyl]-1,3-thiazol-4-yl}formamido)-2,2-dimethylpentanoic acid]
C4-2 cells
  IC50: > 100 nM
  C4-2 % Kill: 10.9%

## C#CCCCCN(C(=O)[C@@H](NC(=O)[C@H]1CCCCN1C)[C@@H](C)CC)[C@H](C[C@@H](OC(C)=O)c1nc(C(=O)N[C@@H](Cc2ccccc2)CC(C)(C)C(=O)O)cs1)C(C)C [IVb, (4S)-4-({2-[(1R,3R)-1-(Acetyloxy)-3-[(2S,3S)—N-(hex-5-yn-1-yl)-3-methyl-2-{[(2R)-1-methylpiperidin-2-yl]formamido}pentanamido]-4-methylpentyl]-1,3-thiazol-4-yl}formamido)-2,2-dimethyl-5-phenylpentanoic acid]
HCT15 cells; with 5 ug/mL Verapamil
  HCT-15 + verapamil % Kill: 98.1%
HCT15 cells; [1]
  IC50: 0.103 nM
HCT15 cells; without Verapamil
  HCT-15 % Kill: 98%
HCT15 cells; [2]
  IC50: 0.151 nM

## CCCCCCN(C(=O)[C@@H](NC(=O)[C@H]1CCCCN1C)[C@@H](C)CC)[C@H](C[C@@H](OC(C)=O)c1nc(C(=O)N[C@@H](Cc2ccc(N)cc2)CC(C)(C)C(=O)O)cs1)C(C)C [IVq, (S)-4-(2-((1R,3R)-1-Acetoxy-3-((2S,3S)—N-hexyl-3-methyl-2-((R)-1-methylpiperidine-2-carboxamido)pentanamido)-4-methylpentyl)thiazole-4-carboxamido)-5-(4-aminophenyl)-2,2-dimethylpentanoic acid]
HCT15 cells; with 5 ug/mL Verapamil
  HCT-15 + verapamil % Kill: 98.6 ± 0.7%
HCT15 cells; [1]
  IC50: 0.0225 nM
HCT15 cells; without Verapamil
  HCT-15 % Kill: 98.4 ± 0.8%
HCT15 cells; [2]
  IC50: 0.0423 nM
HL60/MX2 cells; 72 h incubation
  HL60/MX2 % Kill 72 h: 98.6%
HL60/MX2 cells; 144 h incubation
  HL60/MX2 % Kill 144 h: 100%
HL60/MX2 cells; [3]
  IC50: < 0.015 nM
HL60/MX2 cells; [4]
  IC50: < 0.015 nM
MES-SA/MX2 cells; 72 h incubation
  MES-SA/MX2 % Kill 72 h: 99.4%
MES-SA/MX2 cells; 144 h incubation
  MES-SA/MX2 % Kill 144 h: 100%
MES-SA/MX2 cells; [5]
  IC50: 0.0589 nM
MES-SA/MX2 cells; [6]
  IC50: 0.105 nM
HCT-15 cells; 72 h incubation
  HCT-15 % Kill 72 h: 98%
HCT-15 cells; 144 h incubation
  HCT-15 % Kill 144 h: 99.8%
HCT-15 cells; [7]
  IC50: < 0.015 nM
HCT-15 cells; [8]
  IC50: 0.0277 nM
H69AR cells; 72 h incubation
  H69AR % Kill 72 h: 96.9%
H69AR cells; 144 h incubation
  H69AR % Kill 144 h: 99.5%
H69AR cells; [9]
  IC50: 0.0642 nM
H69AR cells; [10]
  IC50: 0.128 nM

## CCCCCCN(C(=O)[C@@H](NC(=O)[C@H]1CCCCN1C)[C@@H](C)CC)[C@H](C[C@@H](OC(C)=O)c1nc(C(=O)NC(Cc2ccc(N)c(O)c2)CC(C)(C)C(=O)O)cs1)C(C)C (stereo partly drawn) [IVx, 4-(2-((1R,3R)-1-Acetoxy-3-((2S,3S)—N-hexyl-3-methyl-2-((R)-1-methylpiperidine-2-carboxamido)pentanamido)-4-methylpentyl)thiazole-4-carboxamido)-5-(4-amino-3-hydroxyphenyl)-2,2-dimethylpentanoic acid]
HL60/MX2 cells; 72 h incubation
  HL60/MX2 % Kill 72 h: 96.9%
HL60/MX2 cells; 144 h incubation
  HL60/MX2 % Kill 144 h: 100%
HL60/MX2 cells; [3]
  IC50: 0.955 nM
HL60/MX2 cells; [4]
  IC50: 0.77 nM
MES-SA/MX2 cells; 72 h incubation
  MES-SA/MX2 % Kill 72 h: 62.1%
MES-SA/MX2 cells; 144 h incubation
  MES-SA/MX2 % Kill 144 h: 33.6%
MES-SA/MX2 cells; [5]
  IC50: > 100 nM
MES-SA/MX2 cells; [6]
  IC50: > 100 nM
HCT-15 cells; 72 h incubation
  HCT-15 % Kill 72 h: 84.4%
HCT-15 cells; 144 h incubation
  HCT-15 % Kill 144 h: 91%
HCT-15 cells; [7]
  IC50: 34.5 nM
HCT-15 cells; [8]
  IC50: 84.8 nM
H69AR cells; 72 h incubation
  H69AR % Kill 72 h: 48.7%
H69AR cells; 144 h incubation
  H69AR % Kill 144 h: 38%
H69AR cells; [9]
  IC50: > 100 nM
H69AR cells; [10]
  IC50: > 100 nM

## CCCCCCN(C(=O)[C@@H](NC(=O)[C@H]1CCCCN1C)[C@@H](C)CC)[C@H](C[C@@H](OC(C)=O)c1nc(C(=O)N[C@@H](Cc2ccc(F)cc2)CC(C)(C)C(=O)O)cs1)C(C)C [VIII, (4S)-4-({2-[(1R,3R)-1-(Acetyloxy)-3-[(2S,3S)—N-hexyl-3-methyl-2-{[(2R)-1-methylpiperidin-2-yl]formamido}pentanamido]-4-methylpentyl]-1,3-thiazol-4-yl}formamido)-5-(4-fluorophenyl)-2,2-dimethylpentanoic acid]
HCT15 cells; with 5 ug/mL Verapamil, read-out: HCT-15 + verapamil IC50 (value in brackets)
  IC50: 0.106 nM
HCT15 cells; Homo sapiens, HCT-15, without Verapamil, read-out: HCT-15 IC50 (value in brackets)
  IC50: 0.295 nM

## CC[C@H](C)[C@H](NC(=O)[C@H]1CCCCN1C)C(=O)N(CCCCc1cn(CC(=O)O)nn1)[C@H](C[C@@H](OC(C)=O)c1nc(C(=O)N[C@@H](Cc2ccc(N)cc2)CC(C)(C)C(=O)O)cs1)C(C)C [IVm, (S)-4-(2-((1R,3R)-1-acetoxy-3-((2S,3S)—N-(4-(1-(carboxymethyl)-1H-1,2,3-triazol-4-yl)butyl)-3-methyl-2-((R)-1-methylpiperidine-2-carboxamido)pentanamido)-4-methylpentyl)thiazole-4-carboxamido)-5-(4-aminophenyl)-2,2-dimethylpentanoic acid]
C4-2 cells
  IC50: > 100 nM
  C4-2 % Kill: 8.9%

## [2H]c1cc(C[C@@H](CC(C)(C)C(=O)O)NC(=O)c2csc([C@@H](C[C@H](C(C)C)N(CCCCC#C)C(=O)[C@@H](NC(=O)[C@H]3CCCCN3C)[C@@H](C)CC)OC(C)=O)n2)cc([2H])c1N [IVr, (S)-4-(2-((1R,3R)-1-Acetoxy-3-((2S,3S)—N-(hex-5-yn-1-yl)-3-methyl-2-((R)-1-methylpiperidine-2-carboxamido)pentanamido)-4-methylpentyl)thiazole-4-carboxamido)-5-(4-aminophenyl-3,5-d2)-2,2-dimethylpentanoic acid]
HCT15 cells; with 5 ug/mL Verapamil
  HCT-15 + verapamil % Kill: 99%
HCT15 cells; [1]
  IC50: 0.0624 nM
HCT15 cells; without Verapamil
  HCT-15 % Kill: 99.1%
HCT15 cells; [2]
  IC50: 0.0893 nM
HL60/MX2 cells; 72 h incubation
  HL60/MX2 % Kill 72 h: 98.7%
HL60/MX2 cells; 144 h incubation
  HL60/MX2 % Kill 144 h: 100%
HL60/MX2 cells; [3]
  IC50: < 0.015 nM
HL60/MX2 cells; [4]
  IC50: < 0.015 nM
MES-SA/MX2 cells; 72 h incubation
  MES-SA/MX2 % Kill 72 h: 99.1%
MES-SA/MX2 cells; 144 h incubation
  MES-SA/MX2 % Kill 144 h: 100%
MES-SA/MX2 cells; [5]
  IC50: 0.151 nM
MES-SA/MX2 cells; [6]
  IC50: 0.176 nM
HCT-15 cells; 72 h incubation
  HCT-15 % Kill 72 h: 98%
HCT-15 cells; 144 h incubation
  HCT-15 % Kill 144 h: 99.7%
HCT-15 cells; [7]
  IC50: 0.0401 nM
HCT-15 cells; [8]
  IC50: 0.0621 nM
H69AR cells; 72 h incubation
  H69AR % Kill 72 h: 96.7%
H69AR cells; 144 h incubation
  H69AR % Kill 144 h: 99%
H69AR cells; [9]
  IC50: 0.137 nM
H69AR cells; [10]
  IC50: 0.211 nM
